In patent publication US9084828B2, “Oligomer-protein tyrosine kinase inhibitor conjugates” (Nektar Therapeutics, priority 2009, dated 2015):

Tests used:
Assay type in all cases: biochemical
CHK2 = CHK2 (Homo sapiens, UniProt O96017); experiment: Activity against various protein tyrosine kinases: CHK2
GSK3b = GSK3b (Homo sapiens, UniProt P49841); experiment: Activity against various protein tyrosine kinases: GSK3b
FGFR1 = FGFR1 (Homo sapiens, UniProt P11362); experiment: Activity against various protein tyrosine kinases: FGFR1
Protocol: (§1) Using techniques know those of ordinary skill in the art, compounds were tested for activity against various protein tyrosine kinases.

SRC = SRC (Homo sapiens, UniProt P12931); experiment: Activity against various protein tyrosine kinases: SRC
EPHA2 = EPHA2 (Homo sapiens, UniProt P29317); experiment: Activity against various protein tyrosine kinases: EPHA2
MAPKAPK3 = MAPKAPK3 (Homo sapiens, UniProt Q16644); experiment: Activity against various protein tyrosine kinases: MAPKAPK3
LCK = LCK (Homo sapiens, UniProt P06239); experiment: Activity against various protein tyrosine kinases: LCK
Erk1 = Erk1 (Homo sapiens, UniProt P27361); experiment: Activity against various protein tyrosine kinases: Erk1
p38-delta = target: T1, p38-delta (Homo sapiens, UniProt O15264); experiment: Activity against various protein tyrosine kinases: p38-delta
T1 sequence (O15264 1-365): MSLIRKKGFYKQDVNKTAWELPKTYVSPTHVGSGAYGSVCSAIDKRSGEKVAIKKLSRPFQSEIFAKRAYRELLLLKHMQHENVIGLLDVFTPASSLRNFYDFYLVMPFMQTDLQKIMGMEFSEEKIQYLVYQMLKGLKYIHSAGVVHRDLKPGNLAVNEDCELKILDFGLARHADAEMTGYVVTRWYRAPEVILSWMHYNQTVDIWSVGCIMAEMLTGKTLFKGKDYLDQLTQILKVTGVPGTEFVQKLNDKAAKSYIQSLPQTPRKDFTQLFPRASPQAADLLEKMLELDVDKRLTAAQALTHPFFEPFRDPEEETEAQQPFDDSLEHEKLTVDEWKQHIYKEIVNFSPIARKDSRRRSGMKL

p38-beta2 = p38-beta2 (Homo sapiens, UniProt Q15759); experiment: Activity against various protein tyrosine kinases: p38-beta2
AKT3 = AKT3 (Homo sapiens, UniProt Q9Y243); experiment: Activity against various protein tyrosine kinases: AKT3
INSR = INSR (Homo sapiens, UniProt P06213); experiment: Activity against various protein tyrosine kinases: INSR
FYN = FYN (Homo sapiens, UniProt P06241); experiment: Activity against various protein tyrosine kinases: FYN
MSK1 = MSK1 (Homo sapiens, UniProt O75582); experiment: Activity against various protein tyrosine kinases: MSK1
CaMKII (gamma) = CaMKII (gamma) (Homo sapiens, UniProt Q13555); experiment: Activity against various protein tyrosine kinases: CaMKII (gamma)
FGFR2 = FGFR2 (Homo sapiens, UniProt P21802); experiment: Activity against various protein tyrosine kinases: FGFR2
ABL(H396P) = ABL(H396P) (Homo sapiens, UniProt P00519, H396P); experiment: Activity against various protein tyrosine kinases: ABL(H396P)
Protocol: as §1

PDGFR_alpha = PDGFR_alpha (Homo sapiens, UniProt P16234); experiment: Activity against various protein tyrosine kinases: PDGFR_alpha
LYN = LYN (Homo sapiens, UniProt P07948); experiment: Activity against various protein tyrosine kinases: LYN
YES = YES (Homo sapiens, UniProt P07947); experiment: Activity against various protein tyrosine kinases: YES
ABL(T315I) = ABL(T315I) (Homo sapiens, UniProt P00519, T315I); experiment: Activity against various protein tyrosine kinases: ABL(T315I)
Protocol: as §1

TSSK1 = target: T2, TSSK1 (Homo sapiens, UniProt Q9BXA7); experiment: Activity against various protein tyrosine kinases: TSSK1
T2 sequence (Q9BXA7 1-367): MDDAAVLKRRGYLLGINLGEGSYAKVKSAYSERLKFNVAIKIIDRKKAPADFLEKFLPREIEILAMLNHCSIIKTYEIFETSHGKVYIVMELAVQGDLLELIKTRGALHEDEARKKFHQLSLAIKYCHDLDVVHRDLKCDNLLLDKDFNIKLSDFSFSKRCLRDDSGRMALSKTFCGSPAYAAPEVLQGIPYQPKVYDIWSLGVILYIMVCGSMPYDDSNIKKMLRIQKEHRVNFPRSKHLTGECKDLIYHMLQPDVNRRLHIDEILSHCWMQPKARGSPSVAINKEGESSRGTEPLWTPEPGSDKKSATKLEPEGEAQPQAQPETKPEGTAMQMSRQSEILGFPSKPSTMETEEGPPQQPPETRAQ

AurB = AurB (Homo sapiens, UniProt Q96GD4); experiment: Activity against various protein tyrosine kinases: AurB
FGFR4 = FGFR4 (Homo sapiens, UniProt P22455); experiment: Activity against various protein tyrosine kinases: FGFR4
p38a = p38a (Homo sapiens, UniProt Q16539); experiment: Activity against various protein tyrosine kinases: p38a
Fer = Fer (Homo sapiens, UniProt P16591); experiment: Activity against various protein tyrosine kinases: Fer

Chain of FGFR2 (P21802 22-821, species assumed): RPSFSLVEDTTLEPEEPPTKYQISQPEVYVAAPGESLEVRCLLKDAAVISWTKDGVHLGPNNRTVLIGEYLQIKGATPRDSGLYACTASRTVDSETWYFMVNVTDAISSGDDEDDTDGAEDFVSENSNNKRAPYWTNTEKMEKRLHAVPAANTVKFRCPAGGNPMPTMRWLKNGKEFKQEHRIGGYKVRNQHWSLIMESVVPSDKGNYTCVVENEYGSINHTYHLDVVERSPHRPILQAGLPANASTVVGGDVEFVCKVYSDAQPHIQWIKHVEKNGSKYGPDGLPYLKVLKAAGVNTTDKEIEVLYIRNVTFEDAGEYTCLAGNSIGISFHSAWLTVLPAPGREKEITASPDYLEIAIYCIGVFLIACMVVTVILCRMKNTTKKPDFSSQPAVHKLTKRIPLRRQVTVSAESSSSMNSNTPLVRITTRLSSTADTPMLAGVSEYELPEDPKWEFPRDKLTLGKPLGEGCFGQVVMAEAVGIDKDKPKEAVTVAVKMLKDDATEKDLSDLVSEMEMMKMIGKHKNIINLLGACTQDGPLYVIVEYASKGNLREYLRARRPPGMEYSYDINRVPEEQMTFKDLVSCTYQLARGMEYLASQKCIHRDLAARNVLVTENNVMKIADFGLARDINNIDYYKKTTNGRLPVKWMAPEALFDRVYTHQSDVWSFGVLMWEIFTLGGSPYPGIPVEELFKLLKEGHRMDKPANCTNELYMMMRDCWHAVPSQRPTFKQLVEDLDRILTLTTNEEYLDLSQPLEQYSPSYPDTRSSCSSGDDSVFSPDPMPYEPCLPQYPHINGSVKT
Chain of AKT3 (Q9Y243 whole entry, species assumed): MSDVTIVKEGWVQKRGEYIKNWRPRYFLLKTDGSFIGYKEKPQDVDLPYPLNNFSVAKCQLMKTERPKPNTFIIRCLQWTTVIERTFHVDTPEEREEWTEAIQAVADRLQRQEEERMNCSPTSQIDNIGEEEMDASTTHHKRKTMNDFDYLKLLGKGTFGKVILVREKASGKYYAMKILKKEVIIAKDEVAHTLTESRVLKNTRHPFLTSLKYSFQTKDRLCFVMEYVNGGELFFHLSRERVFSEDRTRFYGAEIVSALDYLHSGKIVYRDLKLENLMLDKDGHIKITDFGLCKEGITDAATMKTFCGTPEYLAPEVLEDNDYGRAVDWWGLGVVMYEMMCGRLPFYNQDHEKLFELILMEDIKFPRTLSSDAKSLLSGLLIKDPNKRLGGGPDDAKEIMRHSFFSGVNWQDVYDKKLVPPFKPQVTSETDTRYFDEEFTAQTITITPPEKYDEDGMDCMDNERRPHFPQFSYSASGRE
Chain of LCK (P06239 whole entry, species assumed): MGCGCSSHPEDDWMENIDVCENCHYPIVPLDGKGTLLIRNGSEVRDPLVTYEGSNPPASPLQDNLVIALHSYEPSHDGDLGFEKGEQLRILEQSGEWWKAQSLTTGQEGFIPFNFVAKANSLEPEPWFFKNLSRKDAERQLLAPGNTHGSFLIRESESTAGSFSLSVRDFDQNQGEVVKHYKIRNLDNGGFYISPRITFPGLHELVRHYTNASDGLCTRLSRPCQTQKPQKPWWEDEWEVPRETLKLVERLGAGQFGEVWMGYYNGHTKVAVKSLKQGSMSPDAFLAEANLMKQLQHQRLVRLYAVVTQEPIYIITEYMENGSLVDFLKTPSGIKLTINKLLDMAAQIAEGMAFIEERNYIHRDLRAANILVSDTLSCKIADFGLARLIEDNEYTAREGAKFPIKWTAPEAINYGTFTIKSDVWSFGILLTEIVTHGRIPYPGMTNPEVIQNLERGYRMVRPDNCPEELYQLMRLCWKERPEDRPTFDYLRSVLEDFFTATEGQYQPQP
Chain of Erk1 (P27361 whole entry, species assumed): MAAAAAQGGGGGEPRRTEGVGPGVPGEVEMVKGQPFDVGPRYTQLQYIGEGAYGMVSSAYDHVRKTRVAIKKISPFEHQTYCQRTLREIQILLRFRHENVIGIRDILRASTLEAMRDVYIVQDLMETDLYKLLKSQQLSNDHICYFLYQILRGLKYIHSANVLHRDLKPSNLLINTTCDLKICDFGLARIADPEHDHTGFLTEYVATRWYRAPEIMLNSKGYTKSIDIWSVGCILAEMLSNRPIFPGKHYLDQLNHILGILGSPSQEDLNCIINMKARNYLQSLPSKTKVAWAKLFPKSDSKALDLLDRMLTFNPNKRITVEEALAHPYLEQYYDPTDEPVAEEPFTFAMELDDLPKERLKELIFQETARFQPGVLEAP
Chain of EPHA2 (P29317 24-976, species assumed): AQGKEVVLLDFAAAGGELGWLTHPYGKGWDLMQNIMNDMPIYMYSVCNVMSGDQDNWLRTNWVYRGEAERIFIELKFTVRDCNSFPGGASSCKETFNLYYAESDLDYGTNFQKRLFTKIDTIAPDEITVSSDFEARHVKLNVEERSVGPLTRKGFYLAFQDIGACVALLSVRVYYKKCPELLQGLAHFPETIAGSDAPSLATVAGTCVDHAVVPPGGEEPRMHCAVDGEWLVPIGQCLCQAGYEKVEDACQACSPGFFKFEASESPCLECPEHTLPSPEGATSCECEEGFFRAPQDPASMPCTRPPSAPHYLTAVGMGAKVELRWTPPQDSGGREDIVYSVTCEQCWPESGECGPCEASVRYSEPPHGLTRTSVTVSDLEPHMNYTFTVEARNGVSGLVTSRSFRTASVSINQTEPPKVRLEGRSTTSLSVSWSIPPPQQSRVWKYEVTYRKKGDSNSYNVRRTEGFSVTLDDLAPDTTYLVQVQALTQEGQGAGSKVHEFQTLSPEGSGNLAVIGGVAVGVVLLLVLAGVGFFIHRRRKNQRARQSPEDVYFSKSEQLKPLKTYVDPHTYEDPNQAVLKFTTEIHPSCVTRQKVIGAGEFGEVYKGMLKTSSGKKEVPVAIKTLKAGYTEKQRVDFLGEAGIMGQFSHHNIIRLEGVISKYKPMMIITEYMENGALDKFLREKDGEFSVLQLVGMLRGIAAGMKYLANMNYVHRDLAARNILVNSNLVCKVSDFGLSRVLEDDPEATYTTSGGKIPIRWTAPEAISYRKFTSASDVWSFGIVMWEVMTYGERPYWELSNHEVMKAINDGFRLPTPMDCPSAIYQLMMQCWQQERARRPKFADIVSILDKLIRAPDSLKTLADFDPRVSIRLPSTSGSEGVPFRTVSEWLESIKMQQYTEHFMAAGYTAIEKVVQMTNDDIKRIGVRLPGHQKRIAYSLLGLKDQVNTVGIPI
Chain of p38-beta2 (Q15759 whole entry): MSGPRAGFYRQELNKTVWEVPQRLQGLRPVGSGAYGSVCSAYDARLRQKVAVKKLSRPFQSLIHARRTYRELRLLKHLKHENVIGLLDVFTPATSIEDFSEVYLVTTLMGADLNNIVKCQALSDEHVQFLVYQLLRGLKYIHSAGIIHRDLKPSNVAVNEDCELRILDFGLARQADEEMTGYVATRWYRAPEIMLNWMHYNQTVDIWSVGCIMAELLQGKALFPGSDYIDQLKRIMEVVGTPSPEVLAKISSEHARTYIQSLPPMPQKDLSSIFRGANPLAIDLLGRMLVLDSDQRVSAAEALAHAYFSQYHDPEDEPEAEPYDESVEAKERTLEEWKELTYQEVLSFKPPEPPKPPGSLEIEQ
Chain of SRC (P12931 whole entry, species assumed): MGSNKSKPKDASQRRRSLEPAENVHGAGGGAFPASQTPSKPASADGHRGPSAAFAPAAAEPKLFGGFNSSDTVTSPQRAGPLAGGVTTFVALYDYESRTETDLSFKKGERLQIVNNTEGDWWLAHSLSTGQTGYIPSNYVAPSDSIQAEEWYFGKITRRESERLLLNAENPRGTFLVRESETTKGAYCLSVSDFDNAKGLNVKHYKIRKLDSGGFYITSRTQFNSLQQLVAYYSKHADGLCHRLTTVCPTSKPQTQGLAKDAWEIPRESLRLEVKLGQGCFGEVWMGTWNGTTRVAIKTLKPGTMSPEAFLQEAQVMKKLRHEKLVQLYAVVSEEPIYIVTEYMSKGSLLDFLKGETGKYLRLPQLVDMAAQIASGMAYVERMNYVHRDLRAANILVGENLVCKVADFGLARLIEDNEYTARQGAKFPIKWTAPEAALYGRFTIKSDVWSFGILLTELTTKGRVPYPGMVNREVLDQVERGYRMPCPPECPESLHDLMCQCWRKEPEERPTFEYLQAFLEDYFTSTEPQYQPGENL
Chain of p38a (Q16539 whole entry): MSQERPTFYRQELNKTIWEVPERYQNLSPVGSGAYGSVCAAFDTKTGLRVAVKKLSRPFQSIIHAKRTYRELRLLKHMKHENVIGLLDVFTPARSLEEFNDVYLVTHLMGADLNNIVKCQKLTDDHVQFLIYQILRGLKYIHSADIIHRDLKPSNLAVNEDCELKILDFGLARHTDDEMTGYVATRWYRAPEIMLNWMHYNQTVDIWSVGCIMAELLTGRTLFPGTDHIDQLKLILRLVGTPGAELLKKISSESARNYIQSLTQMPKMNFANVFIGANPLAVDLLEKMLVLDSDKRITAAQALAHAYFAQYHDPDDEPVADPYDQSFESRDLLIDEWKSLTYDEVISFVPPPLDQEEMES
Chain of CHK2 (O96017 whole entry, species assumed): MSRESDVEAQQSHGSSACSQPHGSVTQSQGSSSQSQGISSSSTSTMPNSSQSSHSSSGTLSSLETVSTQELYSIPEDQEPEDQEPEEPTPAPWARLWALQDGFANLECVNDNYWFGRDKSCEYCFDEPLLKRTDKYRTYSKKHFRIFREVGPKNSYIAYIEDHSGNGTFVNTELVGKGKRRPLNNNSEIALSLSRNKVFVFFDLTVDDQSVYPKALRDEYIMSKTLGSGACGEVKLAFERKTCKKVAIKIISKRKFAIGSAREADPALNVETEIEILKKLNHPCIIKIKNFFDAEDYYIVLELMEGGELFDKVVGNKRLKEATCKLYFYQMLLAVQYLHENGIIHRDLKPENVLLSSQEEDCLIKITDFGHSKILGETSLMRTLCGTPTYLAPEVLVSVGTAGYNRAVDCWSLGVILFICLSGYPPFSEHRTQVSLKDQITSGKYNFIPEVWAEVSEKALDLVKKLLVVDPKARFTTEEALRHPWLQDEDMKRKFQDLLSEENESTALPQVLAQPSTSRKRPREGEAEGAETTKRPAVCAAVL

With `COCCOCCOCCNC(=O)OCCN1CCN(c2cc(Nc3ncc(C(=O)Nc4c(C)cccc4Cl)s3)nc(C)n2)CC1` [mPEG3-NHCOO-Dasatinib] the “% Inhibition at 10 nM” value (CHK2) was 1%, the “% Inhibition at 1 μM” value (CHK2) was 11% and the “% Inhibition at 10 nM” value (GSK3b) was 4%. The “% Inhibition at 1 μM” value (GSK3b) was 1%, the “% Inhibition at 10 nM” value (FGFR1) was 11% and the “% Inhibition at 1 μM” value (FGFR1) was −3%. For the same molecule, the “% Inhibition at 10 nM” value (SRC) was 99%, the “% Inhibition at 1 μM” value (SRC) was 99% and the “% Inhibition at 10 nM” value (EPHA2) was 40%. The “% Inhibition at 1 μM” value (EPHA2) was 100%, the “% Inhibition at 10 nM” value (MAPKAPK3) was 5% and the “% Inhibition at 1 μM” value (MAPKAPK3) was 3%. The “% Inhibition at 10 nM” value (LCK) was 97%, the “% Inhibition at 1 μM” value (LCK) was 98% and the “% Inhibition at 10 nM” value (Erk1) was 3%. For the same molecule, the “% Inhibition at 1 μM” value (Erk1) was 2%, the “% Inhibition at 10 nM” value (p38-delta) was 0% and the “% Inhibition at 1 μM” value (p38-delta) was 2%. For the same molecule, the “% Inhibition at 10 nM” value (p38-beta2) was 3%, the “% Inhibition at 1 μM” value (p38-beta2) was 48% and the “% Inhibition at 10 nM” value (AKT3) was 0%. For the same molecule, the “% Inhibition at 1 μM” value (AKT3) was −1%, the “% Inhibition at 10 nM” value (INSR) was 1% and the “% Inhibition at 1 μM” value (INSR) was −1%. The “% Inhibition at 10 nM” value (FYN) was 98%, the “% Inhibition at 1 μM” value (FYN) was 99% and the “% Inhibition at 10 nM” value (MSK1) was 2%. For the same molecule, the “% Inhibition at 1 μM” value (MSK1) was 1%, the “% Inhibition at 10 nM” value (CaMKII (gamma)) was 2% and the “% Inhibition at 1 μM” value (CaMKII (gamma)) was 2%. For the same molecule, the “% Inhibition at 10 nM” value (FGFR2) was −2%, the “% Inhibition at 1 μM” value (FGFR2) was 38% and the “% Inhibition at 10 nM” value (ABL(H396P)) was 99%. For the same molecule, the “% Inhibition at 1 μM” value (ABL(H396P)) was 99%, the “% Inhibition at 10 nM” value (PDGFR_alpha) was 58% and the “% Inhibition at 1 μM” value (PDGFR_alpha) was 99%. For the same molecule, the “% Inhibition at 10 nM” value (LYN) was 99%, the “% Inhibition at 1 μM” value (LYN) was 99% and the “% Inhibition at 10 nM” value (YES) was 100%. For the same molecule, the “% Inhibition at 1 μM” value (YES) was 100%, the “% Inhibition at 10 nM” value (ABL(T315I)) was 1% and the “% Inhibition at 1 μM” value (ABL(T315I)) was 36%. For the same molecule, the “% Inhibition at 10 nM” value (TSSK1) was −1%, the “% Inhibition at 1 μM” value (TSSK1) was 0% and the “% Inhibition at 10 nM” value (AurB) was −1%. For the same molecule, the “% Inhibition at 1 μM” value (AurB) was 4%, the “% Inhibition at 10 nM” value (FGFR4) was 3% and the “% Inhibition at 1 μM” value (FGFR4) was 6%. For the same molecule, the “% Inhibition at 10 nM” value (p38a) was 6%, the “% Inhibition at 1 μM” value (p38a) was 81% and the “% Inhibition at 10 nM” value (Fer) was −4%. For the same molecule, the “% Inhibition at 1 μM” value (Fer) was 5%.

With `COCCOCCOCCOCCOCCOCCOCCNC(=O)OCCN1CCN(c2cc(Nc3ncc(C(=O)Nc4c(C)cccc4Cl)s3)nc(C)n2)CC1` [mPEG7-NHCOO-Dasatinib] the “% Inhibition at 10 nM” value (CHK2) was 2%, the “% Inhibition at 1 μM” value (CHK2) was 1% and the “% Inhibition at 10 nM” value (GSK3b) was 3%. The “% Inhibition at 1 μM” value (GSK3b) was 2%, the “% Inhibition at 10 nM” value (FGFR1) was 2% and the “% Inhibition at 1 μM” value (FGFR1) was 3%. The “% Inhibition at 10 nM” value (SRC) was 98%, the “% Inhibition at 1 μM” value (SRC) was 98% and the “% Inhibition at 10 nM” value (EPHA2) was 36%. For the same molecule, the “% Inhibition at 1 μM” value (EPHA2) was 101%, the “% Inhibition at 10 nM” value (MAPKAPK3) was 1% and the “% Inhibition at 1 μM” value (MAPKAPK3) was 0%. The “% Inhibition at 10 nM” value (LCK) was 98%, the “% Inhibition at 1 μM” value (LCK) was 98% and the “% Inhibition at 10 nM” value (Erk1) was 3%. For the same molecule, the “% Inhibition at 1 μM” value (Erk1) was 4%, the “% Inhibition at 10 nM” value (p38-delta) was 0% and the “% Inhibition at 1 μM” value (p38-delta) was 0%. The “% Inhibition at 10 nM” value (p38-beta2) was 0%, the “% Inhibition at 1 μM” value (p38-beta2) was 35% and the “% Inhibition at 10 nM” value (AKT3) was −3%. For the same molecule, the “% Inhibition at 1 μM” value (AKT3) was −2%, the “% Inhibition at 10 nM” value (INSR) was 2% and the “% Inhibition at 1 μM” value (INSR) was 3%. The “% Inhibition at 10 nM” value (FYN) was 98%, the “% Inhibition at 1 μM” value (FYN) was 98% and the “% Inhibition at 10 nM” value (MSK1) was 3%. For the same molecule, the “% Inhibition at 1 μM” value (MSK1) was 5%, the “% Inhibition at 10 nM” value (CaMKII (gamma)) was 6% and the “% Inhibition at 1 μM” value (CaMKII (gamma)) was 3%. For the same molecule, the “% Inhibition at 10 nM” value (FGFR2) was 5%, the “% Inhibition at 1 μM” value (FGFR2) was 35% and the “% Inhibition at 10 nM” value (ABL(H396P)) was 99%. The “% Inhibition at 1 μM” value (ABL(H396P)) was 99%, the “% Inhibition at 10 nM” value (PDGFR_alpha) was 46% and the “% Inhibition at 1 μM” value (PDGFR_alpha) was 98%. For the same molecule, the “% Inhibition at 10 nM” value (LYN) was 98%, the “% Inhibition at 1 μM” value (LYN) was 98% and the “% Inhibition at 10 nM” value (YES) was 100%. The “% Inhibition at 1 μM” value (YES) was 102%, the “% Inhibition at 10 nM” value (ABL(T315I)) was 4% and the “% Inhibition at 1 μM” value (ABL(T315I)) was 26%. The “% Inhibition at 10 nM” value (TSSK1) was −3%, the “% Inhibition at 1 μM” value (TSSK1) was −5% and the “% Inhibition at 10 nM” value (AurB) was 0%. For the same molecule, the “% Inhibition at 1 μM” value (AurB) was 4%, the “% Inhibition at 10 nM” value (FGFR4) was 0% and the “% Inhibition at 1 μM” value (FGFR4) was 2%. For the same molecule, the “% Inhibition at 10 nM” value (p38a) was 5%, the “% Inhibition at 1 μM” value (p38a) was 74% and the “% Inhibition at 10 nM” value (Fer) was −2%. For the same molecule, the “% Inhibition at 1 μM” value (Fer) was 5%.
